Test results published in patent US5688824A, “Use of leflunomide to prevent or control xenograft rejection” (priority 1996, dated 1997).
Like-named read-outs stand apart in the source and are kept apart here.

What was measured:
[1] = tested on: xenophile antibodies to human peripheral blood lymphocytes (PBL); settings: cited from earlier work
human T-cell = settings: stimulated by allogeneic lymphocytes, anti-CD3 or anti-CD28 with PMA, or IL-2 or IL-2 with PMA; cited from earlier work
[2] = to open-ring form A771726; cited from earlier work
renal allograft = settings: cited from earlier work
skin grafts = settings: cited from earlier work
[3] = tested on: tubulointerstitial nephritis; settings: BN rats, cited from earlier work
[4] = tested on: intimal thickening of BN orthotopic femoral arterial grafts; settings: oral 10 mg/kg/day; cited from earlier work
EGF receptor kinase = settings: cited from earlier work
cGvH disease or SLE = settings: mouse, U.S. Pat. No. 4,965,276; cited from earlier work
[5] = tested on: rejection of concordant hamster to rat cardiac xenografts; experiment: hamster to rat concordant cardiac xenograft rejection; format: in vivo, Golden Syrian hamster donor, Lewis (LEW) rat recipient
Text: The fundamental design of this experiment was to determine a dose response curve using leflunomide as monotherapy, CsA as monotherapy, and both used as combination therapy. End points used to assess efficacy were duration of time to rejection, mortality, histologic differences among the treatment groups, and donor specific antibody responses.
Male LEW rats weighing approximately 200 grams and male Golden Syrian hamsters weighing approximately 150 grams (Harlan, Sprague, Dawley, Indianapolis, Ind.) were allowed five to ten days of acclimatization before surgery was performed. Ketamine-xylazine anesthesia was used in all animals and food and water were freely allowed post-operatively.
Heart transplantation was performed according to the technique of Ono et al., Cardiovasc. […] Cardiac xenograft survival was determined by daily palpation, and rejection was considered complete when the impulse was undetectable. CsA, in its intravenous form (Sandimmune, Sandoz Corporation, East Hanover, N.J.) was administered daily by intramuscular injection to the rat hind limbs. Leflunomide (HWA-486, Hoechst AG, Germany) suspended in 1% carboxymethylcellulose was administered by gavage daily. Immunosuppression therapy was started on the day of surgery unless otherwise specified.
The transplanted animals were assigned to one control group and twelve treatment groups, with dosing at 2.5, 5, 10, 15 and 20 mg/kg of leflunomide, and 10 and 20 mg/kg of CsA. In two groups CsA was kept at 10 mg/kg while leflunomide was dosed at 5 or 10 mg/kg. Three additional treatment groups were included in which leflunomide monotherapy was started seven days before transplantation, or two or three days after transplantation.
The graft heart was excised after cessation of heart beat. Part of the heart was snap frozen in liquid nitrogen and stored at -70° C.; the remainder was fixed in formalin and stained with hematoxylin and eosin to determine pathological changes. The frozen tissue was stained for IgM and IgG deposition using ABC Technique according to Hsu et al., J. Histochem. Cytochem., 29:577 (1981).

cardiac allograft = settings: cited from earlier work
cytotoxic antibody = experiment: complement-mediated cytotoxicity assay, cardiac xenografts; format: in vivo, rat; settings: leflunomide therapy
[6] = tested on: platelet derived growth factor-receptor (PDGFR) tyrosine kinase; settings: cited from earlier work
allogeneic kidney graft = settings: cited from earlier work
SLE in MRL/lpr mice = settings: cited from earlier work
[7] = tested on: rat adjuvant arthritis models and rat allergic encephalitis model; settings: cited from earlier work
[8] = tested on: heterotopic small intestinal transplantation; settings: continuous infusion pump, cited from earlier work
[9] = tested on: intimal thickening in balloon-injured carotids; settings: 20 mg/kg daily from day 3 pre-transplant to day 13 post-transplant; cited from earlier work
IL-2 = settings: cited from earlier work
[10] = tested on: BN heterotopic heart grafts; settings: oral 15 mg/kg/day, cited from earlier work
[11] = tested on: epidermal growth factor (EGF)-dependent cell growth; settings: cited from earlier work
[12] = Lef 15 mg/kg, day began 0, group 5, listed as Lef

## Cc1oncc1C(=O)Nc1ccc(C(F)(F)F)cc1 [leflunomide, N-(4-trifluoromethylphenyl)-5-methylisoxazol-4-carboxamide]
[1]; 10 mg/kg/day for 10 days
  pre-existing, natural xenophile antibodies: decrease in pre-existing, natural xenophile antibodies
[1]; 3 or 10 mg/kg/day from day -4 to day +10, sensitized rats
  xenophile antibody production: inhibited xenophile antibody production in a dose-dependent manner
Human T-cell
  inhibition of human T-cell proliferation: inhibit human T-cell proliferation
[2]
  conversion after administration: rapidly convened to its active open-ring form
Renal allograft; 5 or 10 mg/kg/day by gavage for 30 days
  survival: more than 60 days
Renal allograft; BN-LEW renal transplant
  protection: very similar to the protection attainable with CsA treatment
Skin grafts; 2.5 to 20 mg/kg by gavage for 10 days
  skin graft survival time vs untreated: more than doubled graft survival time compared to untreated animals
Skin grafts; started five to ten days after grafting
  skin graft survival, delayed treatment: achieved prolongation of skin graft survival
[3]
  prevention of tubulointerstitial nephritis: very effective
  reduction of incidence of auto-antibody formation: much more effective than any of the other drugs in reducing the incidence of auto-antibody formation
[3]; listed as Leflunomide
  prevention of tubulointerstitial nephritis: as effective as Cyclosporine A, and was more effective than prednisolone, naproxen or indomethacin in preventing disease development
[4]
  intimal thickening: reduced intimal thickening compared to untreated controls
EGF receptor kinase
  inhibition of EGF receptor kinase: inhibits the intrinsic EGF receptor kinase
cGvH disease or SLE
  glomerulonephritis, anti-dsDNA titer, GvH index, T-lymphocyte proliferative ability: prevented development of glomerulonephritis, reduced anti-dsDNA titer, decreased the GvH index (a measure of relative spleen enlargement), and improved the diminished proliferative ability of T-lymphocytes
  inhibition of development of cGvH disease or SLE: effective in inhibiting the development of cGvH disease or SLE
[5]; 2.5 mg/kg leflunomide, rejected grafts
  graft histology: Interstitial hemorrhage, focal vascular thrombosis and myocardial necrosis with sparse polymorphonuclear cellular infiltration
[5]; 5.0 mg/kg leflunomide, rejected grafts
  graft histology: Interstitial hemorrhage, focal vascular thrombosis and myocardial necrosis with sparse polymorphonuclear cellular infiltration
[5]; 15 mg/kg leflunomide monotherapy, long-term grafts
  graft histology: myocardial fibrosis, moderate mononuclear cell infiltration and arterial thickening, consistent with chronic rejection
[5]; Lef 2.5 mg/kg, day began 0, group 2
  Mean Survival ± SD: 5.0 ± 0.6 days
[5]; Lef 5 mg/kg, day began 0, group 3
  Mean Survival ± SD: 7.7 ± 2.5 days
[5]; Lef 5 mg/kg, day began 0, group 3, listed as Lef
  Graft Survival for Each Subject: 8,14 days
[5]; Lef 10 mg/kg, day began 0, group 4
  Mean Survival ± SD: 52.0 ± 20.2 days
[5]; Lef 10 mg/kg, day began +2, group 12
  Mean Survival ± SD: 58.0 ± 13.7 days
[5]; Lef 10 mg/kg, day began +2, group 12, listed as Lef
  Graft Survival for Each Subject: 76,77 days
[5]; Lef 10 mg/kg, day began +3, group 13
  Mean Survival ± SD: 3.7 ± 0.5 days
[5]; Lef 10 mg/kg, day began -7, group 11
  Mean Survival ± SD: 64.0 ± 13.3 days
[5]; Lef 15 mg/kg, day began 0, group 5
  Mean Survival ± SD: 76.5 ± 21 days
[5]; [12]
  Graft Survival for Each Subject: 100,105 days
  Mean Survival ± SD: 76.5 ± 21.1 days
[5]; Lef 20 mg/kg, day began 0, group 6
  Mean Survival ± SD: 58.9 ± 28.1 days
[5]; Lef 20 mg/kg, day began 0, group 6, listed as Lef
  Graft Survival for Each Subject: 100 days
[5]; initiation of leflunomide delayed until day 3, all animals
  time to rejection of the graft: ≤ 24 h
[5]; leflunomide 20 mg/kg
  toxicity: lethal toxicity appeared
[5]; leflunomide monotherapy
  optimal dose: 15 mg/kg
[5]; leflunomide monotherapy, high doses causing toxicity
  control of xenograft rejection: unable to totally control xenograft rejection
[5]; leflunomide monotherapy, read-out: dose at which graft survival exceeded that of untreated controls
  minimal effective dose: 10 mg/kg
[5]; leflunomide started seven days before or two days after transplantation
  effect of start time on length of graft survival: no significant effect on length of graft survival
Cardiac allograft; 0.63 to 10 mg/kg/day for 7 days
  graft survival vs controls: significantly prolonged graft survival compared to controls
Cardiac allograft; 21 days, leflunomide 5 mg/kg/day
  animals with indefinite graft survival (>100 days): three of six animals
Cytotoxic antibody
  cytotoxic antibody titres: prevented or reversed the cytotoxic antibody titres
[6]
  inhibition of PDGFR tyrosine kinase activity: inhibits the intrinsic EGF receptor kinase as well as other kinases such as platelet derived growth factor-receptor (PDGFR) tyrosine kinase activity
Allogeneic kidney graft; dog, in vivo
  toxicity in dogs: limited, however, by toxicity due to the canine's N-acetylation enzyme deficiency
Allogeneic kidney graft; leflunomide 8 mg/kg daily
  survival: 27 ± 1 days
Allogeneic kidney graft; leflunomide 16 mg/kg daily
  survival: 21 ± 2 days
Allogeneic kidney graft; withdrawn from two dogs after 100 days, combination-treated group
  time to rejection after withdrawal of leflunomide: ≤ 14 days
SLE in MRL/lpr mice; MRL/lpr mice
  ability to inhibit SLE relative to Cyclosporine A: equal or superior to Cyclosporine A (CsA) in ability to inhibit SLE
  disease progression, lymphocyte accumulation, T-cell ratio: stops disease progression and prevents the development of glomerulonephritis
SLE in MRL/lpr mice; MRL/lpr mice, listed as Leflunomide
  disease progression, lymphocyte accumulation, T-cell ratio: suppresses the intense accumulation of lymphocytes in the lymph nodes and spleen of these mice, restores the T-cell helper/suppressor ratio to normal values, and restores the depressed proliferative response of lymphocytes and macrophages
SLE in MRL/lpr mice; at the end of 10 weeks, mice with elevated urine protein
  animals still alive: 90%
[7]; U.S. Pat. No. 4,351,841
  anti-inflammatory activity and toxicity: superior anti-inflammatory activity and decreased toxicity
[7]; two rat adjuvant arthritis models and a rat allergic encephalitis model
  inhibition of immunopathological processes: inhibit immunopathological processes
[8]; 7 days
  survival of recipients: 29.3 ± 13.8 days
[8]; 14 days
  survival of recipients: 38.8 ± 11.5 days
[9]
  intimal thickening: significantly reduced intimal thickening in balloon-injured carotids
IL-2
  inhibition of production of IL-2: only partially inhibits the production of IL-2
[10]; day 50
  graft vascular disease: had no graft vascular disease
[10]
  antibodies directed against BN grafts in sera: contained no antibodies directed against the BN grafts
[11]
  inhibition of EGF-dependent cell growth: capable of inhibiting epidermal growth factor (EGF)-dependent cell growth
